Measurements reported in patent US8435958B2, “Method for producing pectin hydrolysis products” (N.V. Nutricia, priority 2000, dated 2013).

Key:
Caco-2 cells = test system: Caco-2 cells
Excerpt: The test is based on the migration of cells through the pores of a nucleopore polycarbonate filter in a protein gel that contains several ECM proteins, such as, for example, type 1 and type III collagen, fibronectin, and laminin, to a nitrocellulose filter. […] As a control, the effect of glucose on the invasive capacity of Caco-2 cells was studied.

HT-29 = experiment: Growth of colon cancer cell lines on extracellular matrix (ECM), living cell count by trypan blue; assay type: cell-based, human; conditions: for Reduction in Cell Growth: 48 hours
Procedure: (§1) Human colon cancer cell lines HT-29 or Caco-2 were seeded with a cell density of 1×10^4 cells/ml in 15 mm Petri dishes and cultivated in medium RPMI 1640+10% fetal calf serum (FCS) (HT-29) or, respectively, in MEM+10% FCS (Caco-2) at 37° C. under an atmosphere containing 5% CO2. The cells were left to grow for 1 to 2 days until reaching confluence. The dishes were then washed once with PBS, then incubated with PBS and 0.5% Triton X-100 for 30 minutes at room temperature on an agitator, and then washed 3 times with PBS. The previously described cell lines then were again seeded on the dishes with the ECM layers prepared in this way. The influence of the pectin hydrolysate on cell growth was determined by counting the cells. For this, the cells were again removed after 48 hours with trypsine/EDTA solution in HBBS (10 min) and were washed in PBS solution. Then the number of living cells was determined by staining with trypan blue solution (650 mg trypan blue in 400 ml 0.9% NaCl, 1:1 (v/v)) in a Neubauer counting chamber. As a control, experiments were performed with glucose.

Caco-2 = experiment: as above; assay type: cell-based, human; conditions: for Reduction in Cell Growth: 48 hours
Procedure: as §1

[1] = target: T1, galectin-3 on Caco-2 colon cancer cells (Homo sapiens, UniProt P17931); experiment: Inhibition of anti-galectin-3 monoclonal antibody binding, immunofluorescence/flow cytometry
T1 construct: endogenous in cells; host or cells: Caco-2 human colon cancer cells
Procedure: (§2) The expression of galectin-3 on colon cancer cells was determined with immunofluorescence/flow cytometry methods using an anti-galectin-3-specific monoclonal antibody (mouse-Ig) and a corresponding anti-mouse FITC-coupled secondary antibody.

[2] = target: T2, galectin-3 on HT 29 colon cancer cells (Homo sapiens, UniProt P17931); experiment: as above
T2 construct: endogenous in cells; host or cells: HT-29 (HT 29) human colon cancer cells
Procedure: as §2

E. coli [3] = conditions: from EP 0 716 605 B1; cited from earlier work
E. coli [4] = experiment: Prevention of adhesion of pathogenic germs to human uroepithelial cells; assay type: cell-based; conditions: human uroepithelial cells pre-incubated 1, 2 or 3 hours, various concentrations
Procedure: (§3) For this test, human uroepithelian cells obtained by centrifugation from morning urine as well as two strains of staphylococcus aureus and E. coli were used, each as a suspension with 10^9 germs/mL.
(§4) Epithelial cells and germ suspension were incubated together at 37° C. for 30 minutes. The epithelial cells then were separated from the non-adherent germs by membrane filtration (8μ). The filters were washed several times, placed into normal saline, and the epithelial cells were suspended in it. After centrifugation of the suspension in saline, the pellet was applied to slides and stained according to May-Grünwald and Giemsa. The number of germs adhering to 50 epithelial cells were counted. This number represented the blank value. Epithelial cells to which no germ solution had been added were used as a control.
(§5) In the main test, epithelial first were incubated with aqueous solutions of various concentrations consisting of pectin hydrolysis products produced according to the invention (according to Example 1) for 1, 2 or 3 hours. They were then combined with the germ suspension and treated further as described above. The measuring value was obtained by counting the germs adhering to 50 epithelial cells.

staphylococcus aureus = experiment: as above; assay type: cell-based; conditions: human uroepithelial cells pre-incubated 1, 2 or 3 hours, various concentrations
Procedure: as §3, §4, §5

[5] = HT 29, in relation to the concentration used
[6] = Caco-2, in relation to the concentration used

T2 sequence (P17931 whole entry): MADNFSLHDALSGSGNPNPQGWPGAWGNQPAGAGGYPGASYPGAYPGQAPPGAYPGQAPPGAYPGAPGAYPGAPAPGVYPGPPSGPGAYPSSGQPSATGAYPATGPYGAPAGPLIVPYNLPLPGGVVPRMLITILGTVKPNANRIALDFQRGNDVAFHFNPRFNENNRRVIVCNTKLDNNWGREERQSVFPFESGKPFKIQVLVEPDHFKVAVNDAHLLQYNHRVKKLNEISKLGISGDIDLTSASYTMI
T1 sequence (P17931 whole entry): as above

## O=C[C@H](O)[C@@H](O)[C@H](O)[C@H](O)CO [Glucose, glucose]
Caco-2 cells
  reduction of the invasive capacity of Caco-2 cells (text summary of Table 2): only caused a slight reduction
HT-29; HT 29, concentration 0.01%
  Reduction in Cell Growth: 0%
HT-29; HT 29, concentration 0.1%
  Reduction in Cell Growth: 1%
HT-29; HT 29, concentration 1.0%
  Reduction in Cell Growth: 0%
HT-29; [5]
  reduced cell growth (text summary of Table 1): no influence
Caco-2; Caco-2, concentration 0.01%
  Reduction in Cell Growth: 0%
Caco-2; Caco-2, concentration 0.1%
  Reduction in Cell Growth: 0%
Caco-2; Caco-2, concentration 1.0%
  Reduction in Cell Growth: 0%
Caco-2; [6]
  reduced cell growth (text summary of Table 1): no influence
[1]; Caco-2, concentration 0.01%
  Reduction of Binding Monoclonal Anti-Galectin-3 Antibody: 0
[1]; Caco-2, concentration 0.1%
  Reduction of Binding Monoclonal Anti-Galectin-3 Antibody: 0
[1]; Caco-2, concentration 1.0%
  Reduction of Binding Monoclonal Anti-Galectin-3 Antibody: 0
[1]; [6]
  reduction of the binding of the monoclonal anti-galectin-3 antibody (Table 3): not at all or only slightly
[2]; HT 29, concentration 0.01%
  Reduction of Binding Monoclonal Anti-Galectin-3 Antibody: 0
[2]; HT 29, concentration 0.1%
  Reduction of Binding Monoclonal Anti-Galectin-3 Antibody: 0
[2]; HT 29, concentration 1.0%
  Reduction of Binding Monoclonal Anti-Galectin-3 Antibody: 2
[2]; [5]
  reduction of the binding of the monoclonal anti-galectin-3 antibody (Table 3): not at all or only slightly

## O=C(O)[C@H]1O[C@H](O[C@@H]2[C@H](O)[C@@H](O)[C@@H](O)O[C@@H]2C(=O)O)[C@H](O)[C@@H](O)[C@H]1O [digalacturonide]
E. coli [3]
  blocking of the adhesion: ≤ 91.7%

## OC[C@H]1O[C@H](O[C@]2(CO)O[C@H](CO[C@H]3O[C@H](CO)[C@@H](O)[C@H](O)[C@H]3O)[C@@H](O)[C@@H]2O)[C@H](O)[C@@H](O)[C@@H]1O [isomelezitose]
E. coli [4]
  blockage of germ adhesion to the epithelial cells: No reduction
Staphylococcus aureus
  blockage of germ adhesion to the epithelial cells: No reduction

## O=C(O)[C@H]1OC(O)[C@H](O)[C@@H](O)[C@H]1O (some centres unmarked) [monogalacturonic acid]
E. coli [3]
  blocking of the adhesion: no blocking

## OC[C@H]1O[C@@](CO)(OC[C@@]2(OC[C@@]3(O[C@H]4O[C@H](CO)[C@@H](O)[C@H](O)[C@H]4O)O[C@H](CO)[C@@H](O)[C@@H]3O)O[C@H](CO)[C@@H](O)[C@@H]2O)[C@@H](O)[C@@H]1O [nystose]
E. coli [4]
  blockage of germ adhesion to the epithelial cells: No reduction
Staphylococcus aureus
  blockage of germ adhesion to the epithelial cells: No reduction

## OC[C@H]1O[C@H](OC[C@H]2O[C@H](O[C@]3(CO)O[C@H](CO)[C@@H](O)[C@@H]3O)[C@H](O)[C@@H](O)[C@@H]2O)[C@H](O)[C@@H](O)[C@H]1O [raffinose]
E. coli [4]
  blockage of germ adhesion to the epithelial cells: No reduction
Staphylococcus aureus
  blockage of germ adhesion to the epithelial cells: No reduction

## O=C(O)[C@H]1O[C@H](O[C@@H]2[C@H](O)[C@@H](O)[C@@H](O[C@@H]3[C@H](O)[C@@H](O)C(O)O[C@@H]3C(=O)O)O[C@@H]2C(=O)O)[C@H](O)[C@@H](O)[C@H]1O (some centres unmarked) [trigalacturonide]
E. coli [3]
  blocking of the adhesion: ≤ 84.6%
